In ChEMBL document CHEMBL1159182, “SAR of cocaine: further exploration of structural variations at the C-2 center provides compounds of subnanomolar binding potency” (Bioorg Med Chem Lett, 1993):
Where “and” joins values, the source holds several entries; their conditions need not be identical. Equal entries are not always repeated.

Legend:
[1] = target: T1, Sodium-dependent dopamine transporter (Homo sapiens, UniProt Q01959); assay: Inhibitory concentration against [3H]dopamine uptake; type: functional
T1 sequence (Q01959 whole entry): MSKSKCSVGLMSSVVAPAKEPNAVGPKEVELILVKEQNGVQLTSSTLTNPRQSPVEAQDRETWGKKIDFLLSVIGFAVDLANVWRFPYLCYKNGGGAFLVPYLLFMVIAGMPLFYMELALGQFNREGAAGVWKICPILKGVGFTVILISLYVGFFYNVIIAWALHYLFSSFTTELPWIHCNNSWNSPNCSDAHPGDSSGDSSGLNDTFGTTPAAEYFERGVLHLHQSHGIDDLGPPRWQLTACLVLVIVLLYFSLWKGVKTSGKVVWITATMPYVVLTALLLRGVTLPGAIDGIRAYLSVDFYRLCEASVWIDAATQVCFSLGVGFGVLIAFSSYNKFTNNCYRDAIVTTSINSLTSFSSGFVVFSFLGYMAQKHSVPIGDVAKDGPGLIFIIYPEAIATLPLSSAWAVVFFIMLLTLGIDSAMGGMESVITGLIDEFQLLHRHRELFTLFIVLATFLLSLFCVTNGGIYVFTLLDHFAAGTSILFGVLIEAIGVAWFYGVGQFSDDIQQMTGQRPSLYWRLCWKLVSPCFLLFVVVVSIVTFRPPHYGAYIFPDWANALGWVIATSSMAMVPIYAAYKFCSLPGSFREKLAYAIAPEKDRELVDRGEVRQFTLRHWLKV

[2] = target: T1, Sodium-dependent dopamine transporter; assay: Displacement of [3H]mazindol from dopamine transporter
[3] = target: T1, Sodium-dependent dopamine transporter; assay: Ability to displace [3H]-Mazindol from dopamine receptor
[4] = target: T1, Sodium-dependent dopamine transporter; assay: Inhibitory concentration required for [3H]dopamine uptake; not being isolated; type: functional
[5] = target: T1, Sodium-dependent dopamine transporter; assay: Ability to displace [3H]mazindol to dopamine receptor; not being isolated
[6] = target: T1, Sodium-dependent dopamine transporter; assay: Ability to displace [3H]mazindol from dopamine transporter
[7] = target: T1, Sodium-dependent dopamine transporter; assay: Binding constant for the ability to displace [3H]mazindol to dopamine receptor was calculated from the Cheng-Prusoff relationship
[8] = target: T1, Sodium-dependent dopamine transporter; assay: Binding constant for [3H]dopamine uptake was calculated from the Cheng-Prusoff relationship

CN1C2CCC1[C@H](/C=C/Cl)[C@@H](c1ccc(Cl)cc1)C2 (stereo partly specified)
IC50 [1]: 19 nM and 16 nM
IC50 [2]: 24 nM and 18 nM

CC[C@@H]1C2CCC(C[C@@H]1c1ccc(Cl)cc1)N2C (stereo partly specified)
IC50 [1]: 2.6 nM
IC50 [2]: 3.5 nM

CN1C2CCC1[C@@H]([C@@H](O)C(F)(F)F)[C@@H](c1ccc(Cl)cc1)C2 (stereo partly specified)
IC50 [1]: 10.5 nM
IC50 [2]: 9.2 nM

C=C[C@@H]1C2CCC(C[C@@H]1c1ccc(Cl)cc1)N2C (stereo partly specified)
IC50 [3]: 1.2 nM
IC50 [1]: 2.8 nM

CN1C2CCC1[C@@H](C(=O)C(F)(F)F)[C@@H](c1ccc(Cl)cc1)C2 (stereo partly specified)
IC50 [4]: not isolated
IC50 [5]: not isolated

CN1C2CCC1[C@H](C(=O)C(F)(F)F)[C@@H](c1ccc(Cl)cc1)C2 (stereo partly specified)
IC50 [1]: 377 nM
IC50 [2]: 1190 nM

CN1C2CCC1[C@@H]([C@H](O)C(F)(F)F)[C@@H](c1ccc(Cl)cc1)C2 (stereo partly specified)
IC50 [4]: not isolated
IC50 [5]: not isolated

COC(=O)C1C2CC[C@H](C[C@@H]1c1ccc(Cl)cc1)N2C (stereo partly specified)
IC50 [6]: 1.7 nM
IC50 [1]: 3.2 nM

CN1C2CCC1[C@@H](/C=C/Cl)[C@@H](c1ccc(Cl)cc1)C2 (stereo in doubt; 4)
IC50 [1]: 1.3 nM
IC50 [2]: 0.73 nM

CN1C2CCC1[C@@H](/C=C/Cl)[C@@H](c1ccc(Cl)cc1)C2 (stereo in doubt; 5)
Ki [7]: 0.22 nM
Ki [8]: 0.88 nM
IC50 [1]: 0.99 nM
IC50 [2]: 0.36 nM

CN1C2CCC1[C@H](C(O)C(F)(F)F)[C@@H](c1ccc(Cl)cc1)C2 (stereo in doubt; 12)
IC50 [1]: 125 nM
IC50 [2]: 166 nM

CN1C2CCC1[C@H](C(O)C(F)(F)F)[C@@H](c1ccc(Cl)cc1)C2 (stereo in doubt; 13)
IC50 [1]: 525 nM
IC50 [2]: 1100 nM
